{"source": "ChEMBL document CHEMBL1132382", "about": "(J Med Chem, 1999)", "key": {"Oryctolagus cuniculus [1]": {"species_on_record": "Oryctolagus cuniculus", "assay": "The compound was evaluated for fall in intraocular pressure (IOP) of Normotensive rabbits after treatment with one drop (50 microL) of a 2% solution at 0 min (pH 7.5)", "type": "functional, Eye"}, "Oryctolagus cuniculus [2]": {"species_on_record": "Oryctolagus cuniculus", "assay": "The compound was evaluated for fall in intraocular pressure (IOP) of Glaucomatous rabbits after treatment with one drop (50 microL) of a 2% solution at 90 min (pH 7.5)", "type": "functional, Eye"}, "Oryctolagus cuniculus [3]": {"species_on_record": "Oryctolagus cuniculus", "assay": "The compound was evaluated for fall in intraocular pressure (IOP) of Glaucomatous rabbits after treatment with one drop (50 microL) of a 2% solution at 60 min (pH 7.5)", "type": "functional, Eye"}, "Oryctolagus cuniculus [4]": {"species_on_record": "Oryctolagus cuniculus", "assay": "The compound was evaluated for fall in intraocular pressure (IOP) of Normotensive rabbits after treatment with one drop (50 microL) of a 2% solution at 60 min (pH 7.5)", "type": "functional, Eye"}, "Oryctolagus cuniculus [5]": {"species_on_record": "Oryctolagus cuniculus", "assay": "The compound was evaluated for fall in intraocular pressure (IOP) of Glaucomatous rabbits after treatment with one drop (50 microL) of a 2% solution at 30 min (pH 7.5)", "type": "functional, Eye"}, "Oryctolagus cuniculus [6]": {"species_on_record": "Oryctolagus cuniculus", "assay": "The compound was evaluated for fall in intraocular pressure (IOP) of Glaucomatous rabbits after treatment with one drop (50 microL) of a 2% solution at 0 min (pH 7.5)", "type": "functional, Eye"}, "Carbonic anhydrase 1": {"molecular_target": "Carbonic anhydrase 1 (Homo sapiens, UniProt P00915)", "sequence (P00915 whole entry)": "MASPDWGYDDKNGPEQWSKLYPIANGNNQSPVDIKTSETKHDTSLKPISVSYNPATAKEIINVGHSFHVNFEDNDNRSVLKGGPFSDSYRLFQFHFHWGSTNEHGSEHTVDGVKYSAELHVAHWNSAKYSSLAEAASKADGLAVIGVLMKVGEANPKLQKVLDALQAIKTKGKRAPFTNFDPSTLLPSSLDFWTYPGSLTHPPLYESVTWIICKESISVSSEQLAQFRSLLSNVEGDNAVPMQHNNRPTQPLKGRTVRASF", "description": "Inhibitory activity against human recombinant carbonic anhydrase I (CA1)"}, "[7]": {"assay": "not given", "remark": "listed apart in the source"}, "Carbonic anhydrase 4": {"molecular_target": "T1, Carbonic anhydrase 4 (Bos taurus, UniProt Q95323)", "T1 sequence (Q95323 whole entry)": "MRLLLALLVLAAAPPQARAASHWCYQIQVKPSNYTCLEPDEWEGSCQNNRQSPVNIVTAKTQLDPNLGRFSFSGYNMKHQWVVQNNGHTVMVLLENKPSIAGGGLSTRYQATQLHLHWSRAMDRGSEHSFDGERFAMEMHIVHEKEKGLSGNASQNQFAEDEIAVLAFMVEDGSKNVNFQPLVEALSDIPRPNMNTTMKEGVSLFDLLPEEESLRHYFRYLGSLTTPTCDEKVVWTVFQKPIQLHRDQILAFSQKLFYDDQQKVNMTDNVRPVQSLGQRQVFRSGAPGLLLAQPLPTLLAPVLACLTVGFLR", "description": "Inhibitory activity against bovine carbonic anhydrase IV (CA4), isolated from bovine lung microsomes"}, "physchem": {"assay": "physchem", "details": "buffer, pH 7.4"}, "Oryctolagus cuniculus [8]": {"species_on_record": "Oryctolagus cuniculus", "assay": "The compound was evaluated for fall in intraocular pressure (IOP) of Normotensive rabbits after treatment with one drop (50 microL) of a 2% solution at 30 min (pH 7.5)", "type": "functional, Eye"}, "Oryctolagus cuniculus [9]": {"species_on_record": "Oryctolagus cuniculus", "assay": "The compound was evaluated for fall in intraocular pressure (IOP) of Normotensive rabbits after treatment with one drop (50 microL) of a 2% solution at 90 min (pH 7.5)", "type": "functional, Eye"}, "[10]": {"details": "octanol/water", "description": "Partition coefficient (logD) (chloroform/buffer)"}, "Oryctolagus cuniculus [11]": {"species_on_record": "Oryctolagus cuniculus", "assay": "The compound was evaluated for fall in intraocular pressure (IOP) of Glaucomatous rabbits after treatment with one drop (50 microL) of a 2% solution at 30 min (pH 6.0)", "type": "functional, Eye"}, "Oryctolagus cuniculus [12]": {"species_on_record": "Oryctolagus cuniculus", "assay": "The compound was evaluated for fall in intraocular pressure (IOP) of Glaucomatous rabbits after treatment with one drop (50 microL) of a 2% solution at 60 min (pH 6.0)", "type": "functional, Eye"}, "Oryctolagus cuniculus [13]": {"species_on_record": "Oryctolagus cuniculus", "assay": "The compound was evaluated for fall in intraocular pressure (IOP) of Normotensive rabbits after treatment with one drop (50 microL) of a 2% solution at 90 min (pH 5.5)", "type": "functional, Eye"}, "Oryctolagus cuniculus [14]": {"species_on_record": "Oryctolagus cuniculus", "assay": "The compound was evaluated for fall in intraocular pressure (IOP) of Normotensive rabbits after treatment with one drop (50 microL) of a 2% solution at 30 min (pH 5.5)", "type": "functional, Eye"}, "Oryctolagus cuniculus [15]": {"species_on_record": "Oryctolagus cuniculus", "assay": "The compound was evaluated for fall in intraocular pressure (IOP) of Glaucomatous rabbits after treatment with one drop (50 microL) of a 2% solution at 90 min (pH 6.0)", "type": "functional, Eye"}, "Oryctolagus cuniculus [16]": {"species_on_record": "Oryctolagus cuniculus", "assay": "The compound was evaluated for fall in intraocular pressure (IOP) of Normotensive rabbits after treatment with one drop (50 microL) of a 2% solution at 60 min (pH 5.5)", "type": "functional, Eye"}, "Oryctolagus cuniculus [17]": {"species_on_record": "Oryctolagus cuniculus", "assay": "The compound was evaluated for fall in intraocular pressure (IOP) of Glaucomatous rabbits after treatment with one drop (50 microL) of a 2% solution at 0 min (pH 6.0)", "type": "functional, Eye"}, "Oryctolagus cuniculus [18]": {"species_on_record": "Oryctolagus cuniculus", "assay": "The compound was evaluated for fall in intraocular pressure (IOP) of Normotensive rabbits after treatment with one drop (50 microL) of a 2% solution at 0 min (pH 5.5)", "type": "functional, Eye"}}, "note": "pKi: −log10 of the molar value."}
{"smiles": "NCC(=O)NCC(=O)Nc1ccc(S(=O)(=O)Nc2nnc(S(N)(=O)=O)s2)cc1", "values": [{"measurement": "Change in IOP", "setting": "Oryctolagus cuniculus [1]", "result": 0, "unit": "mmHg"}, {"measurement": "Change in IOP", "setting": "Oryctolagus cuniculus [2]", "result": 13.1, "unit": "mmHg"}, {"measurement": "Change in IOP", "setting": "Oryctolagus cuniculus [3]", "result": 11.8, "unit": "mmHg"}, {"measurement": "Change in IOP", "setting": "Oryctolagus cuniculus [4]", "result": 8.8, "unit": "mmHg"}, {"measurement": "Change in IOP", "setting": "Oryctolagus cuniculus [5]", "result": 7, "unit": "mmHg"}, {"measurement": "Change in IOP", "setting": "Oryctolagus cuniculus [6]", "result": 0, "unit": "mmHg"}, {"measurement": "kin", "result": 2, "unit": "h⁻¹"}, {"measurement": "pKi", "setting": "Carbonic anhydrase 1", "result": 7.89}, {"measurement": "kin", "setting": "[7]", "result": 5, "unit": "h⁻¹"}, {"measurement": "pKi", "setting": "Carbonic anhydrase 4", "result": 8.22}, {"measurement": "solubility", "setting": "physchem", "result": 51, "unit": "mM"}, {"measurement": "Change in IOP", "setting": "Oryctolagus cuniculus [8]", "result": 5.9, "unit": "mmHg"}, {"measurement": "Change in IOP", "setting": "Oryctolagus cuniculus [9]", "result": 9.1, "unit": "mmHg"}, {"measurement": "logD", "setting": "[10]", "result": 0.754}]}
{"smiles": "NCC(=O)Nc1ccc(S(=O)(=O)Nc2nnc(S(N)(=O)=O)s2)cc1", "values": [{"measurement": "Change in IOP", "setting": "Oryctolagus cuniculus [11]", "result": 7.9, "unit": "mmHg"}, {"measurement": "Change in IOP", "setting": "Oryctolagus cuniculus [12]", "result": 12.5, "unit": "mmHg"}, {"measurement": "Change in IOP", "setting": "Oryctolagus cuniculus [13]", "result": 9, "unit": "mmHg"}, {"measurement": "kin", "result": 3.1, "unit": "h⁻¹"}, {"measurement": "Change in IOP", "setting": "Oryctolagus cuniculus [14]", "result": 5.9, "unit": "mmHg"}, {"measurement": "pKi", "setting": "Carbonic anhydrase 1", "result": 7.85}, {"measurement": "kin", "setting": "[7]", "result": 5.4, "unit": "h⁻¹"}, {"measurement": "pKi", "setting": "Carbonic anhydrase 4", "result": 8.05}, {"measurement": "Change in IOP", "setting": "Oryctolagus cuniculus [15]", "result": 14, "unit": "mmHg"}, {"measurement": "Change in IOP", "setting": "Oryctolagus cuniculus [16]", "result": 9.5, "unit": "mmHg"}, {"measurement": "Change in IOP", "setting": "Oryctolagus cuniculus [17]", "result": 0, "unit": "mmHg"}, {"measurement": "solubility", "setting": "physchem", "result": 65, "unit": "mM"}, {"measurement": "Change in IOP", "setting": "Oryctolagus cuniculus [18]", "result": 0, "unit": "mmHg"}, {"measurement": "logD", "setting": "[10]", "result": 0.043}]}
